From the NIST ThermoML archive (doi:10.1016/j.jct.2013.11.004)
± gives the expanded uncertainty stated by the source.

Settings: DTA

| Glass transition temperature [°C] | SMILES |
| --- | --- |
| -83.17 ± 4 | CCC(=O)[O-].CCn1cc[n+](C)c1 [1-ethyl-3-methylimidazolium propionate] |
| -82.92 ± 4 | CCC(=O)[O-].CCCn1cc[n+](C)c1 [1-propyl-3-methylimidazolium propionate] |
